One compound from US9067894B1, “Compound, composition, and method of activating GIRK potassium channel and use of same for treating conditions of interest” (Vanderbilt University, priority 2013, dated 2015) can be followed below.

The structures appear in SMILES notation. Read-outs that look alike come from different tables or passages of the source.

For data set [1], the system named is Purinergic P2Y. The experiment in a line: Radioligand displacement (Ricerca). The class given is binding, rat. Conditions: 10 μM. In general terms: In a radioligand displacement assay an active substance lowers the binding of a labelled ligand.
The nature of data set [2]: In vivo pharmacokinetic study, IP in mice. Conditions: mouse, intraperitoneal 10 mg/kg. As to the method:
In Vivo Pharmacokinetic Study. Compound(s) were formulated in 10% Tween80 in sterile water at the concentration of 3.33 mg/mL and administered IP to male C57 BL6 mice weighing 20 to 25 g (Harlan, Indianapolis, Ind.) at the dose of 10 mg/kg. The blood (cardiac puncture) and brain were collected at 0.5, 1, 3, and 6 hr. Animals were euthanized and decapitated, and the brains were removed, thoroughly washed in cold phosphate-buffered saline, and immediately frozen on dry ice. Plasma was separated by centrifugation (4000 rcf, 4° C.) and stored at −80° C. until analysis. On the day of analysis, frozen whole-[…] brains were weighed and diluted with 1:3 (w/w) parts of 70:30 isopropanol:water. The mixture was then subjected to mechanical homogenation employing a Mini-Beadbeater™ and 1.0 mm Zirconia/Silica Beads (BioSpec Products) followed by centrifugation. The sample extraction of plasma (20 μL) or brain homogenate (20 μL) was performed by a method based on protein precipitation using three volumes of ice-cold acetonitrile containing an internal standard (50 ng/mL carbamazepine). The samples were centrifuged (3000 rcf, 5 min) and supernatants transferred and diluted 1:1 (supernatant: water) into a new 96 well plate, which was then sealed in preparation for LC/MS/MS analysis.
LC/MS/MS Bioanalysis of Samples from In Vivo Studies. In vivo samples were analyzed via electrospray ionization (ESI) on an AB Sciex QTrap 5500 (Foster City, Calif.) triple-quadrupole linear ion trap instrument that was coupled with Shimadzu LC-20AD pumps (Columbia, Md.) and a Leap Technologies CTC PAL auto-sampler (Carrboro, N.C.). Analytes were separated by gradient elution using a Fortis C18 2.1×50 mm, 3 μm column (Fortis Technologies Ltd, Cheshire, UK) at 40° C. HPLC mobile phase A was 0.1% formic acid in water (pH unadjusted), mobile phase B was 0.1% formic acid in acetonitrile (pH unadjusted). […] The total run time was 2.5 min and the HPLC flow rate was 0.5 mL/min. The source temperature was set at 500° C. and mass spectral analyses were performed using multiple reaction monitoring (MRM), with transitions specific for each compound utilizing a Turbo-Ionspray® source in positive ionization mode (5.0 kV spray voltage). The calibration curves were constructed, and linear response was obtained in the range of 0.5 to 5,000 ng/mL, by spiking known amounts of […] in blank brain homogenate or plasma. All data were analyzed using AB Sciex Analyst software v1.5.1. The final PK parameters were calculated by noncompartmental analysis using Phoenix (version 6.2) (Pharsight Inc., Mountain View, Calif.).

The target in data set [3] is T1, Endothelin ETA (Homo sapiens, UniProt P25101).
T1 construct: Ricerca
T1 sequence (P25101 21-427): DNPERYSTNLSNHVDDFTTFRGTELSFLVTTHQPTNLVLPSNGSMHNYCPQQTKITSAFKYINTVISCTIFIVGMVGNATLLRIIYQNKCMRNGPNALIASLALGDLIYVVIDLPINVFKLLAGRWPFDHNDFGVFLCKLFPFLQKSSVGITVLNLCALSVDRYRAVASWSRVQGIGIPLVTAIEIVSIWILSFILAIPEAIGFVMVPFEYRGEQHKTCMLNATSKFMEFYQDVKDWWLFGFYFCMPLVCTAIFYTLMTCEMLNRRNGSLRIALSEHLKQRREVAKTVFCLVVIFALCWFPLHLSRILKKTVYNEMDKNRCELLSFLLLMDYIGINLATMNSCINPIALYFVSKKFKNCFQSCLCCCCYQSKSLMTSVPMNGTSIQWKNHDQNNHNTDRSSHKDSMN
The experiment in a line: Radioligand displacement (Ricerca). It counts as binding.

For the compound `Cc1cc(NC(=O)Nc2ccc(F)c(F)c2)n(-c2ccccc2)n1` [VU0456810, 1-(3,4-difluorophenyl)-3-(3-methyl-1-phenyl-1H-pyrazol-5-yl)urea], the “% Inhibition” value in data set [1] turned out to be 4%. The compound further gave a concentration ratio (Kp) at 0.5 h in data set [2] (male, C57 BL6, brain/plasma, ip, 30 min after administration) of 0.2. The concentration at 30 min came to 500 nM in data set [2] (male, C57 BL6, brain, 30 min after administration, read-out: Brain concentration); 2300 nM in data set [2] (male, C57 BL6, plasma, 30 min after administration, read-out: Plasma concentration); 500 nM in data set [2] (30 min after administration, read-out: Brain concentration). In data set [2] (male, C57 BL6, plasma, ip), this compound gave a half-life of 20 min. Also, the Plasma concentration in data set [2] (30 min after administration) amounted to 2300 nM. This compound gave an inhibition at 10 µM in data set [3] of 1%.

A word on the % Inhibition: it is the change of the read-out against control, counted positive when it falls. Read a low % Inhibition as a weak effect. Broadly, the Kp is the ratio of the level in a tissue or fluid to that in plasma or blood. As usually defined, the half-life is the time in which the quantity being followed falls by half. By inhibition is commonly meant the share of the control response that was lost under treatment.
